US7632531B2, “Alkyldienamides exhibiting taste and sensory effect in flavor compositions” (International Flavors & Fragnances Inc., priority 2003, dated 2009)

Legend:
Assay type in all cases: in vivo
[1] = Flavor / organoleptic characteristics of the alkyldienamides; conditions: for Primary characteristic / Secondary characteristic: flavor characteristics; for Taste and flavor characteristics: organoleptic properties
[2] = Toothpaste tasting in normal tooth brushing versus control paste; conditions: 200 ppm compound added to mint control paste
Method: The following separate groups of ingredients were prepared:
2.0 parts by weight of sodium n-Lauroyl sarcosinate (foaming agent)
1.0 parts by weight of the flavor material which is a blend of peppermint oil, spearmint oil, anethole, and menthol.
• (1) The ingredients in Group “A” were stirred and heated in a steam jacketed kettle to 160° F. • (2) Stirring was continued for an additional 3 to 5 minutes to form a homogeneous gel. • (3) The powders of Group “B” were added to the gel, while mixing until a homogeneous paste is formed. • (4) With stirring, the flavor of Group “D” was added, followed by addition immediately thereafter of the foaming agent of Group “C”. • (5) The resultant slurry was then blended for one hour.
The completed paste was then transferred to a three-roller mill, homogenized and finally tubed. […] To this control paste 200 ppm of N-Isobutyl E2,Z6-dodecadienamide is added.

[3] = Hard candy (cinnamon bark oil) tasting versus control candy; conditions: 100 PPM compound in cinnamon bark oil candy
Method: The above ingredients were added to a stainless steel pot. With constant mixing the ingredients were brought to 295° F. The pot was removed from the heat and 0.5 grams of cinnamon bark oil was blended in. This liquid candy was then deposited into molds where it was left to cool. This recipe yielded 200 grams of finished candy. […] Another candy sample was prepared using the above recipe with the addition of 100 PPM of N-Methyl E2,Z6-nonadienamide.

[4] = Non-alcoholic lemon lime beverage tasting versus control beverage; conditions: 0.5 PPM compound plus 35 PPM lemon oil/lime oil flavor; versus control beverage with flavor only
Method: A non-alcoholic beverage formulation was prepared according to the following formulation: […]
The flavor applied to the beverages consisted of a blend of single fold lemon oil and distilled lime oil. The control beverage contained 35 PPM of this flavor. […] Another beverage was prepared containing 35 PPM of the same flavor and 0.5 PPM of N-Ethyl E2,Z6-nonadienamide.

[5] = Alcoholic peach beverage tasting versus control beverage; conditions: 20 PPM compound plus 60 PPM peach flavor in 30° Proof alcoholic base
Method: Flavored beverages were prepared using the following 30° Proof alcoholic base:
The peach flavor applied to the beverages consisted of a blend of Gamma Decalactone, Benzaldehyde, Cis-3-hexenol, Butyric acid, 2-Methyl butyric acid, Iso butyl acetate, Linalool, and para-Mentha-8-thiol-3-one. The control beverage contained 60 PPM of the above flavor blend. […] Another beverage was prepared containing 60 PPM of the same flavor and 20 PPM of N-(3,4-methylenedioxy)benzyl E2,Z6-nonadienamide.

| Structure (SMILES) | Primary characteristic [1] | Secondary characteristic [1] | Taste and flavor characteristics [1] | other results |
| --- | --- | --- | --- | --- |
| CC/C=C\CC/C=C/C(=O)NC1CC1 [N-cyclopropyl E2,Z6-nonadienamide] | Umami | Enhancement |  |  |
| CCCCC/C=C\CC/C=C/C(=O)NCC(C)C [N-isobutyl E2,Z6-dodecadienamide] | Numbing | Tingle |  | Additional sensation of toothpaste (tingle, numbing) [2]: tingle on the tongue and a slight numbing on the lips; Flavor / cooling of toothpaste [2]: moderate cooling without the bitterness of the control sample |
| CC/C=C\CC/C=C/C(=O)NC [N-methyl E2,Z6-nonadienamide] | Tingle | Numbing | Warming, tingle. | Taste effect in hard candy [3]: a greener flavor with less warmth, a slight numbing and a moderate level of tingle |
| CCCCC/C=C\CC/C=C/C(=O)NC(C)C [N-isopropyl E2,Z6-dodecadienamide] |  | Tingle | Oily flavor, slight tingle. |  |
| CC/C=C\CC/C=C/C(=O)NCC(C)CC (stereo not drawn) [N-(2-methylbutyl) E2,Z6-nonadienamide] | Bitter | Tingle | Metallic, bitter, tingle. |  |
| CC/C=C\CC/C=C/C(=O)NCC(C)O (stereo not drawn) [N-(2-hydroxypropyl) E2,Z6-nonadienamide] |  |  | Cloying, fatty, cod liver oil, fishy. |  |
| CC/C=C\CC/C=C/C(=O)NCC [N-ethyl E2,Z6-nonadienamide] | Umami | Enhancement | Umami character. | Taste effect in non-alcoholic beverage [4]: enhanced flavor impact, increased tartness, and an increased perception of freshness |
| CC/C=C\CC/C=C/C(=O)NCc1ccc2c(c1)OCO2 [N-(3,4-methylenedioxy) benzyl E2,Z6-nonadienamide] | Numbing | Tingle | Numbing and tingle. | Taste effect in alcoholic beverage [5]: an enhanced perception of alcohol, increased flavor impact, and a tingle effect on the tongue |
| CCCCC/C=C\CC/C=C/C(=O)NCC [N-ethyl E2,Z6-dodecadienamide] | MSG like | Burning |  |  |
| CC/C=C\CC/C=C/C(=O)NCC(C)C [N-isobutyl E2,Z6-nonadienamide] |  | MSG like |  |  |
| CCCCC/C=C\CC/C=C/C(=O)NCC(C)CC (stereo not drawn) [N-(2-methylbutyl) E2,Z6-dodecadienamide] | Fruity | Salt like | Slightly fruity, tingle, salty. |  |
| CC/C=C\CC/C=C/C(=O)NC(C)C [N-isopropyl E2,Z6-nonadienamide] | Cucumber taste | Tingle | Oily, cucumber, some tingle, bitter. |  |
